# From patent publication US8193333B2, “Cancer therapy using Bcl-Xl-specific siNA” (Centre Regional de Lutte Contre le Cancer-Centre Francois …, priority 2006, dated 2012)
# How the values were obtained:
# Bcl-XL protein = assay: Western blot of Bcl-XL protein expression in tumour cell lines after siRNA transfection; type: cell-based, human; conditions: SKOV3 cells
# Method: SKOV3, OAW42, OAW42-R10, IGROV1 and IGROV1-R10 human ovarian adenocarcinoma cell lines, GL15 glioblastoma cell line, and NCI-H28 mesothelioma cell line were obtained from ECACC or ATCC. OAW42, OAW42-R10 cells were grown in DMEM (GIBCO-BRL) supplemented with 10% foetal calf serum (GIBCO-BRL), 2 mM Glutamax™ (GIBCO-BRL), 1 mM sodium pyruvate (GIBCO-BRL), 20 UI/L human recombinant insulin (LILLY), 33 mM sodium bicarbonate and 20 mM HEPES All the other cell lines were grown in RPMI 1640 medium (GIBCO-BRL) supplemented with 10% foetal calf serum (GIBCO-BRL), 2 mM Glutamax™ (GIBCO-BRL), 33 mM sodium bicarbonate and 20 mM HEPES. Cells were maintained at 37° C. in a 5% CO2 humidified atmosphere, and split twice a week by trypsinization.
# (§1) Exponentially growing cells were exposed to CDDP for 2 hours at 37° C., in serum free medium. After exposure to the drug, the cell layers were rinsed and incubated in complete growth medium.
# (§2) The siRNA duplexes were transfected according to the recommended procedure by using the Oligofectamine Reagent and Opti-MEM medium (INVITROGEN LIFE TECHNOLOGIES). 30-40% confluent cells were transfected in 25 cm^2 flasks with different concentrations of siXL1, siRNA Mcl-1 or siRNA control and incubated at 37° C., 5% CO2 for 4 hours. Next, 20% fetal bovin serum was added to reach a final concentration of 10% foetal bovin serum in the 25 cm^2 flask.
# (§3) Cells were rinsed with ice cold PBS and lysed in 150 mM NaCl, 50 mM Tris-HCl pH 8, 1% Triton X100, 4 mM PMSF, 2 mM Aprotinin, 5 mM EDTA, 10 mM NaF, 10 mM NaPPi, 1 mM Na3VO4 for 30 min on ice. Lysates were clarified by centrifugation at 10000 g for 10 min at 4° C. and protein concentrations were determined using the Bradford assay (BIO-RAD). Equal amounts of total cellular protein (20 μg) were resolved in a Bis-tris-HCL buffered (pH 6.4) 4-12% polyacrylamide gel (NuPAGE® Novex® 4-12% Bis-tris gel, INVITROGEN) for 35 min at 200V and electrophoretically transferred on a PVDF membrane (MILLIPORE) for 75 min at 30V. The membrane was blocked for 1 hour at room temperature in T-TBS (132 mM NaCl, 20 mM Tris-HCl pH 7.6, 0.05% Tween 20) supplemented with 5% non-fat dry milk. The membrane was incubated for 1 hour at room temperature in T-TBS-milk with the following primary antibodies: anti-Bcl-XL/S (1:500, S18 SANTA-CRUZ BIOTECHNOLOGY), anti-PARP (1:1000, CELL-SIGNALING TECHNOLOGY), anti-caspase-3 (1:1000, BD BIOSCIENCES PHARMINGEN) anti-cleaved caspase-3 (1:1000, CELL-SIGNALING TECHNOLOGY), anti-alpha-tubulin (1:3000, SIGMA) and anti-Mcl-1 (1:750, S19 SANTA-CRUZ BIOTECHNOLOGY). After three washes with T-TBS, the membrane was incubated for 1 h at room temperature in T-TBS-milk with the adequate peroxidase conjugated secondary antibody (Anti-rabbit IgG, CELL-SIGNALING TECHNOLOGY, and anti-mouse IgG, AMERSHAM). After 3 washes with T-TBS and one with TBS, the immunoreactivity was detected by enhanced chemiluminescence (ECL kit, AMERSHAM).
# SKOV3 cells [1] = assay: Apoptosis induction in SKOV3 cells (cell and nuclear morphology after DAPI, caspase 3 activation and PARP cleavage by Western blot); type: cell-based, human; conditions: 24 h, combination with 20 μg/ml cisplatin
# Method: as §1, §2, §3
# (§4) After treatment, detached cells were collected separately and adherent cells were dissociated by trypsin/EDTA. Adherent and detached cells were then pooled and centrifuged at 1500×g for 5 min before being fixed in 70% ethanol. The cells were then collected on a polylysine-coated glass slide by cytocentrifugation, before a 30 min room temperature incubation in a 1 μg/ml DAPI aqueous solution (BOEHRINGER MANNHEIM). Slides were thereafter extensively washed in distilled water and mounted in Mowiol (CALBIO-CHEM).
# SKOV3 cells [2] = assay: Cell mortality, viability, growth and cell cycle of SKOV3 cells (morphology, trypan blue exclusion, FACS of DNA content); type: cell-based, human; conditions: for cell death (morphology, FACS analysis of the cell cycle): cisplatin 5 or 20 μg/ml, siRNA 150 nM; for cellular and nuclear morphologies and cell cycle versus untransfected SKOV3 cells: alone 150 nM or in combination 75 nM each, 72 h after transfection, FIG. 13
# Method: as §1, §2, §4
# After treatment, detached cells were collected separately. Adherent cells were then harvested by trypsin/EDTA dissociation. Adherent and detached cells were then pooled and washed in PBS before being fixed in 70% ethanol and stored at −20° C. until analysis. Before flow cytometry analysis, the cells were washed in PBS and incubated for 30 min at room temperature in PBS in order to allow the release of low molecular weight (m.w.) DNA, characteristic of apoptotic cells. After a centrifugation at 4000 g for 10 min, the cell pellets were resuspended and stained with propidium iodide (PI) using the DNA Prep Coulter Reagent Kit (BECKMAN-COULTER) at a final concentration of 10^6 cells/ml.
# Samples were analyzed using an EPICS XL flow cytometer (BECKMAN COULTER) equipped with an argon laser at 15 mW. PI-stained cells were analyzed using a 488 mn excitation. A 620 nm band pass filter was put on the red fluorescence of PI. Computerized gating was applied on the side and forward scatter to exclude very small debris and on pulse width and integral peak of red fluorescence to eliminate aggregates. All samples were analyzed at a flow rate lower than 100 events per second and with a sheath pressure of 30 psi.
# [3] = tested on: intraperitoneal SKOV3 human ovarian adenocarcinoma; assay: Survival of nude mice bearing intraperitoneal SKOV3 tumours; type: in vivo, Swiss/nude mice; conditions: siRNA 25 μg/kg, cisplatin 4 μg/kg intraperitoneal, treatment repeated one month later, FIG. 15
# Method: 4-week-old female Swiss/nude mice were obtained from CHARLES-RIVER LABORATORIES and maintained in a pathogen-free environment. The mice were fed a standard laboratory diet and tap water ad libitum and kept a 23±1° C. with a 12 h light/dark cycle. Animal experiments in the present study were performed in compliance with the guidelines of the Federation of european laboratory animal science associations.
# 6-8 weeks old mice were implanted intraperitoneally with 2×10^7 ovarian adenocarcinoma SKOV3 cells. As described previously, this model reflects the i.p growth pattern of advanced ovarian cancer (Louis et al, Cancer Gene Therapy, 2006, 13, 367-374).
# Twenty one days after tumour implantation, mice were allocated to one of the eight treatment groups (10 mice per group) summarized in Table II: • Group 1 comprised untreated animals. • Group 2 received intraperitoneal injection of 4 μg/kg cisplatin in 1 ml 0.9% NaCl solution. • Group 3 received intraperitoneal injection of 25 μg/kg control siRNA in 1 ml 0.9% NaCl. • Group 4 received intraperitoneal injection of 25 μg/kg Bcl-XL siRNA in 1 ml 0.9% NaCl. • Group 5 received intraperitoneal injection of 25 μg/kg control siRNA in 1 ml 0.9% NaCl and the following day 4 μg/kg of cisplatin in 1 ml 0.9% NaCl solution. • Group 6 received intraperitoneal injection of 4 μg/kg of cisplatin in 1 ml 0.9% NaCl solution and the following day 25 μg/kg control siRNA in 1 ml 0.9% NaCl. • Group 7 received intraperitoneal injection of 25 μg/kg Bcl-XL siRNA in 1 ml 0.9% NaCl and the following day 4 μg/kg of cisplatin in 1 ml 0.9% NaCl solution. • Group 8 received intraperitoneal injection of 4 μg/kg of cisplatin in 1 ml 0.9% NaCl solution and the following day 25 μg/kg Bcl-XL siRNA in 1 ml 0.9% NaCl.
# The same treatment was repeated one month later. Mice were killed and autopsied when considered as moribund. Organs and tumours were formalin-fixed and paraffin-embedded for histological examination. At the end of the experiment, all surviving animals were sacrificed, and histological examination was performed in order to detect residual tumour nodes.
# Mcl-1 mRNA = assay: RT-PCR of Mcl-1 mRNA in SKOV3 cells; type: cell-based, human; conditions: 72 h after transfection, FIG. 11A
# Method: as §2
# Mcl-1 protein = assay: Western blot of Mcl-1 protein expression in SKOV3 cells; type: cell-based, human; conditions: FIG. 11B
# Method: as §2
# Cells were rinsed with ice cold PBS and lysed in 150 mM NaCl, 50 mM Tris-HCl pH 8, 1% Triton X100, 4 mM PMSF, 2 mM Aprotinin, 5 mM EDTA, 10 mM NaF, 10 mM NaPPi, 1 mM Na3VO4 for 30 min on ice. Lysates were clarified by centrifugation at 10000 g for 10 min at 4° C. and protein concentrations were determined using the Bradford assay (BIO-RAD). Equal amounts of total cellular protein (20 μg) were resolved in a Bis-tris-HCL buffered (pH 6.4) 4-12% polyacrylamide gel (NuPAGE® Novex® 4-12% Bis-tris gel, INVITROGEN) for 35 min at 200V and electrophoretically transferred on a PVDF membrane (MILLIPORE) for 75 min at 30V. The membrane was blocked for 1 hour at room temperature in T-TBS (132 mM NaCl, 20 mM Tris-HCl pH 7.6, 0.05% Tween 20) supplemented with 5% non-fat dry milk. […] After 3 washes with T-TBS and one with TBS, the immunoreactivity was detected by enhanced chemiluminescence (ECL kit, AMERSHAM).
Compound,"Bcl-XL protein expression 24 hours after exposure to cisplatin (Bcl-XL protein; 72 hours after siRNA transfection, cisplatin 5 and 20 μg/ml, FIG. 9)",caspase 3 activation and PARP cleavage after 24 h exposure to cisplatin (SKOV3 cells [1]),"cell mortality / cell cycle after several days (SKOV3 cells [2]; SKOV3 cells, cisplatin 5 and 20 μg/ml)","cell death (morphology, FACS analysis of the cell cycle) (SKOV3 cells [2]; SKOV3 cells)",effect on mice survival [3],"cytotoxic effect on SKOV3 cells (SKOV3 cells [2]; 50 nM each siRNA, absence of cisplatin, FIG. 12)","cytotoxic effect of each siRNA (SKOV3 cells [2]; SKOV3 cells, FIGS. 13 and 14)",cellular and nuclear morphologies and cell cycle versus untransfected SKOV3 cells (SKOV3 cells [2]),Mcl-1 mRNA expression (RT-PCR) (Mcl-1 mRNA),Mcl-1 protein expression after 72 hours (Mcl-1 protein),"effect of various concentrations on Bcl-XL protein expression (Bcl-XL protein; 72 h after transfection, FIG. 3)"
"N.N.[Cl][Pt][Cl] [cisplatin, cis-diamino-dichloro-platinum II, reference compound]",no effect,no sign of apoptosis,only a transient arrest in cell cycle progression,low level or no cell death,does not improve survival,–,–,–,–,–,–
"siMcl-1: Mcl-1 specific siRNA; sense 5′-gugccuuuguggcuaaacatt-3′ (SEQ ID NO: 7), anti-sense 5′-uguuuagccacaaaggcacct-3′ (SEQ ID NO: 8) (sense GUGCCUUUGUGGCUAAACATT; antisense UGUUUAGCCACAAAGGCACCT; chemistry not given here)",–,–,–,–,–,no cytotoxic effect,slight cytoxic effect,no difference,almost completely,disappeared totally,–
"control siRNA: control siRNA without homology to relevant human genes; sense SEQ ID NO: 9, anti-sense SEQ ID NO: 10 (sense GACGUGGGACUGAAGGGGUTT; antisense ACCCCUUCAGUCCCACGUCTT; chemistry not given here) [reference compound]",–,–,–,no changes,does not increase the mice survival,–,–,no difference,–,–,No effect
